Experimental findings from patent publication US20240368163A1, “COMPOUNDS AND METHODS FOR MODULATING SPLICING” (REMIX THERAPEUTICS INC., priority 2021, published 2024) are described below.

Common to all, as to format: cell-based, human
Assay [1] has as its system Target C. As to the kind of experiment: Splicing RT-qPCR panel, Target C canonical junction (CJ) mRNA. The note with it: Homo sapiens, RT-qPCR panel, canonical junction mRNA; compound concentration having 50% response in CJ decrease; read-out: Target C IC50 (decrease in CJ mRNA levels). The essentials: (§1)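 Splice switching is measured in A673 or K562 cells after 24 h compound exposure (maximum 10 uM, 3-fold steps). Canonical and alternative junction mRNA levels are quantified by RT-qPCR relative to housekeeper and DMSO.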
Background: Real-time PCR tracks product formation cycle by cycle.

Assay [2] deals with HTT. As to the kind of experiment: HiBiT protein abundance assay, HTT. The note with it: Homo sapiens, K562, 24 h, Table 13A, modified K562 cells. The gist of the method:
(§2)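 HiBiT-tagged endogenous targets in K562 cells treated 24 h at 37° C. with 10-point 3-fold dilutions (top 10 μM, DMSO ≤0.25%). Luminescence read after lytic LgBiT detection; response normalised to unmodified-cell and DMSO controls, IC50 interpolated at 50% from four-parameter logistic fit.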
(The HiBiT peptide binds its large partner to form an active luciferase.)

Assay [3] relates to HTT. As to the kind of experiment: Splicing RT-qPCR assay, HTT mRNA canonical junction (CJ) and alternative junction (AJ). The note with it: Homo sapiens; for AC50: increase in AJ mRNA. The gist of the method: as §1
For assay [4], the system named is MYB. As to the kind of experiment: HiBiT protein abundance assay, MYB. The note with it: Homo sapiens, K562, 24 h, Table 13A, modified K562 cells. The essentials: as §2
The test system of assay [5] is Target C. The assay can be described thus: HiBiT protein abundance assay, Target C. The note with it: Homo sapiens, K562, 24 h, Table 13A, modified K562 cells. The gist of the method: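 HiBiT knock-in K562-derived cells seeded at 10000/well and treated with 10-point 3-fold dilutions (top final 10 μM, ≤0.25% DMSO) for 24 h at 37 °C. Lytic HiBiT luminescence normalised to unmodified-cell and DMSO controls; IC50 from 4-parameter fit at 50% abundance.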

In assay [6] the test system is SMN2. As to the kind of experiment: Splicing RT-qPCR panel, SMN2 canonical junction (CJ) mRNA. The note with it: Homo sapiens, RT-qPCR panel, canonical junction mRNA; compound concentration having 50% response in CJ decrease; read-out: SMN2 IC50 (decrease in CJ mRNA levels). The gist of the method:
as §1

The test system of assay [7] is MYB. As to the kind of experiment: Splicing RT-qPCR assay, MYB mRNA canonical junction (CJ) and alternative junction (AJ). The note with it: Homo sapiens; for AC50: increase in AJ mRNA. The essentials:
as §1

The mark [8] stands for this setting: 24 h, decrease in CJ mRNA, A673 or K562 cells, 24 hours treatment, RT-qPCR, read-out: HTT CJ IC50.
The mark [9] stands for this setting: 24 h, A673 or K562 cells, 24 hours treatment, RT-qPCR.
Where [10] appears, read: RT-qPCR panel, canonical junction mRNA, compound concentration having 50% response in CJ decrease, read-out: HTT IC50 (decrease in CJ mRNA levels).
Where [11] appears, read: 24 h, decrease in CJ mRNA, A673 or K562 cells, 24 hours treatment, RT-qPCR, read-out: MYB CJ IC50.
[12] abbreviates: RT-qPCR panel, canonical junction mRNA, compound concentration having 50% response in CJ decrease, read-out: MYB IC50 (decrease in CJ mRNA levels).

For orientation: IC50 means the point on the concentration scale where inhibition reaches its midpoint. By AC50 is commonly meant the midpoint of the concentration-response curve, whichever way the signal moves. A high value points to activity only at high concentration. On to `c1n[nH]cc1-c1ccc(-c2ccc(N3CC4(CCNCC4)C3)nn2)c2[nH]ncc12` [Compound 229], for which the IC50 in assay [1], in assay [2], in assay [3] (setting [8]), in assay [3] (setting [10]), in assay [4] and in assay [5] was 1 to 10 µM each time. The IC50 in assay [6], in assay [7] (setting [11]) and in assay [7] (setting [12]) was 1 to 10 µM each time. Besides, the AC50 in assay [3] (setting [9]) and in assay [7] (setting [9]) was 1 to 10 µM throughout.

Regarding `c1n[nH]cc1-c1ccc(-c2ccc(OC3CCNCC3)nn2)c2[nH]ncc12` [Compound 230], the IC50 in assay [1] was over 10 µM; in assay [2], 1 to 10 µM; in assay [3] (setting [8]), over 10 µM; in assay [3] (setting [10]), over 10 µM; in assay [4], 1 to 10 µM; in assay [5], over 10 µM. Moreover, the IC50 in assay [6] is 1 to 10 µM; in assay [7] (setting [11]), over 10 µM; in assay [7] (setting [12]) it was over 10 µM. Besides, the AC50 in assay [3] (setting [9]) and in assay [7] (setting [9]) was over 10 µM each time.

Regarding `[2H]C([2H])([2H])N(c1ccc(-c2ccc(-c3cn[nH]c3)c3ncsc23)nn1)C1CC(C)(C)NC(C)(C)C1` [Compound 231], the IC50 in assay [1] was 0.1 to 1 µM; in assay [2], under 0.1 µM; in assay [3] (setting [8]), 0.1 to 1 µM; in assay [3] (setting [10]), 0.1 to 1 µM; in assay [4], 0.1 to 1 µM; in assay [5] it was 0.1 to 1 µM. In addition, the results for the IC50 in assay [6], in assay [7] (setting [11]) and in assay [7] (setting [12]) were under 0.1 µM, 0.1 to 1 µM and 0.1 to 1 µM, respectively. For the same molecule, the AC50 in assay [3] (setting [9]) and in assay [7] (setting [9]) was 0.1 to 1 µM in each case.

Consider `Cn1cc(-c2ccc(-c3ccc(OC4CC(C)(C)NC(C)(C)C4)nn3)c3[nH]ncc23)cn1` [Compound 232], for which the IC50 in assay [1] lay in the range of 1 to 10 µM; in assay [2], 0.1 to 1 µM; in assay [3] (setting [8]), 1 to 10 µM; in assay [3] (setting [10]), 1 to 10 µM; in assay [4], 1 to 10 µM; in assay [5] it was 1 to 10 µM. In addition, the IC50 in assay [6] was in the range of 0.1 to 1 µM; in assay [7] (setting [11]) it was 1 to 10 µM; in assay [7] (setting [12]), 1 to 10 µM. For the same molecule, the AC50 in assay [3] (setting [9]) and in assay [7] (setting [9]) was 0.1 to 1 µM throughout.

For the molecule `COc1cc(-c2ccc(-c3ccc(N(C)C4CC(C)(C)NC(C)(C)C4)nn3)c3ncsc23)cnn1` [Compound 233], the IC50 in assay [1], in assay [2], in assay [3] (setting [8]), in assay [3] (setting [10]), in assay [4] and in assay [5] was 0.1 to 1 µM throughout. For the same molecule, the IC50 in assay [6], in assay [7] (setting [11]) and in assay [7] (setting [12]) was 0.1 to 1 µM each time. Also, the AC50 in assay [3] (setting [9]) and in assay [7] (setting [9]) was 0.1 to 1 µM throughout.

For the molecule `CN(c1ccc(-c2ccc(-c3cnnc(O)c3)c3scnc23)nn1)C1CC(C)(C)NC(C)(C)C1` [Compound 234], the IC50 in assay [1] was over 10 µM; in assay [2] it was 1 to 10 µM; in assay [3] (setting [8]) it was over 10 µM; in assay [3] (setting [10]) it was over 10 µM; in assay [4], 1 to 10 µM; in assay [5] it was over 10 µM. Further, the IC50 in assay [6] was 0.1 to 1 µM; in assay [7] (setting [11]), over 10 µM; in assay [7] (setting [12]) it was over 10 µM. Further, the AC50 in assay [3] (setting [9]) and in assay [7] (setting [9]) was over 10 µM throughout.

With `CN1C[C@@H]2[C@H](C1)[C@H]2N(C)c1ccc(-c2ccc(-c3cn[nH]c3)c3ncsc23)nn1` [Compound 235], the IC50 in assay [1] was over 10 µM; in assay [2], 1 to 10 µM; in assay [3] (setting [8]), over 10 µM; in assay [3] (setting [10]), over 10 µM; in assay [4], 1 to 10 µM; in assay [5], 0.1 to 1 µM. Moreover, the IC50 is 1 to 10 µM in assay [6], over 10 µM in assay [7] (setting [11]) and over 10 µM in assay [7] (setting [12]). The AC50 in assay [3] (setting [9]) and in assay [7] (setting [9]) was over 10 µM in each case.

As to `c1n[nH]cc1-c1ccc(-c2ccc(NC3CNC3)nn2)c2[nH]ncc12` [Compound 237], the IC50 in assay [1], in assay [2], in assay [3] (setting [8]), in assay [3] (setting [10]), in assay [4] and in assay [5] was over 10 µM each time. Moreover, the IC50 in assay [6], in assay [7] (setting [11]) and in assay [7] (setting [12]) was over 10 µM throughout. The AC50 in assay [3] (setting [9]) and in assay [7] (setting [9]) was over 10 µM in each case.

As to `c1n[nH]cc1-c1ccc(-c2ccc(N3CCC4(CC3)CNC4)nn2)c2[nH]ncc12` [Compound 238], the IC50 in assay [1], in assay [2], in assay [3] (setting [8]), in assay [3] (setting [10]), in assay [4] and in assay [5] was over 10 µM throughout. Moreover, the IC50 in assay [6], in assay [7] (setting [11]) and in assay [7] (setting [12]) was over 10 µM throughout. The AC50 in assay [3] (setting [9]) and in assay [7] (setting [9]) was over 10 µM in each case.

For the molecule `c1n[nH]cc1-c1ccc(-c2ccc(N3CCC4(CCNCC4)C3)nn2)c2[nH]ncc12` [Compound 239], the IC50 in assay [1], in assay [2], in assay [3] (setting [8]), in assay [3] (setting [10]), in assay [4] and in assay [5] was over 10 µM in each case. Also, the IC50 in assay [6], in assay [7] (setting [11]) and in assay [7] (setting [12]) was over 10 µM in each case. The AC50 in assay [3] (setting [9]) and in assay [7] (setting [9]) was over 10 µM in each case.

With `c1n[nH]cc1-c1ccc(-c2ccc(N3CCC4(CCNC4)CC3)nn2)c2[nH]ncc12` [Compound 240], the IC50 in assay [1], in assay [2], in assay [3] (setting [8]), in assay [3] (setting [10]), in assay [4] and in assay [5] was over 10 µM each time. The IC50 in assay [6], in assay [7] (setting [11]) and in assay [7] (setting [12]) was over 10 µM each time. The AC50 in assay [3] (setting [9]) and in assay [7] (setting [9]) was over 10 µM throughout.

Take `c1n[nH]cc1-c1ccc(-c2ccc(N3CCNCC3)nn2)c2[nH]ncc12` [Compound 241]: the IC50 in assay [1] is over 10 µM; in assay [2], 1 to 10 µM; in assay [3] (setting [8]), over 10 µM; in assay [3] (setting [10]) it was over 10 µM; in assay [4], 1 to 10 µM; in assay [5], 1 to 10 µM. The half-inhibitory concentration (IC50) in assay [6] was 1 to 10 µM; in assay [7] (setting [11]), over 10 µM; in assay [7] (setting [12]), over 10 µM. Also, the AC50 in assay [3] (setting [9]) and in assay [7] (setting [9]) was 1 to 10 µM throughout.

Consider `CN(c1ccc(-c2ccc(-c3cnn(C)c3)c3cn[nH]c23)nn1)C1CC(C)(C)NC(C)(C)C1` [Compound 243], for which the IC50 in assay [1] was over 10 µM; in assay [2], 1 to 10 µM; in assay [3] (setting [8]), 1 to 10 µM; in assay [3] (setting [10]), 1 to 10 µM; in assay [4], 1 to 10 µM; in assay [5], over 10 µM. Further, the IC50 in assay [6] fell in the range of 0.1 to 1 µM; in assay [7] (setting [11]), 1 to 10 µM; in assay [7] (setting [12]) it was 1 to 10 µM. For the same molecule, the AC50 in assay [3] (setting [9]) and in assay [7] (setting [9]) was 1 to 10 µM each time.

`c1n[nH]cc1-c1ccc(-c2ccc(N3CCCC4(CNC4)C3)nn2)c2[nH]ncc12` [Compound 251]: the IC50 in assay [1], in assay [2], in assay [3] (setting [8]), in assay [3] (setting [10]), in assay [4] and in assay [5] was over 10 µM each time. Moreover, the IC50 in assay [6], in assay [7] (setting [11]) and in assay [7] (setting [12]) was over 10 µM in each case. In addition, the AC50 in assay [3] (setting [9]) and in assay [7] (setting [9]) was over 10 µM each time.

As to `c1n[nH]cc1-c1ccc(-c2ccc(N3CCC4(CCCNC4)C3)nn2)c2[nH]ncc12` (stereo not drawn) [Compound 252], the IC50 in assay [1] is over 10 µM; in assay [2], over 10 µM; in assay [3] (setting [8]), over 10 µM; in assay [3] (setting [10]) it was over 10 µM; in assay [4], 1 to 10 µM; in assay [5] it was over 10 µM. The IC50 is 1 to 10 µM in assay [6], over 10 µM in assay [7] (setting [11]) and over 10 µM in assay [7] (setting [12]). Also, the AC50 in assay [3] (setting [9]) and in assay [7] (setting [9]) was over 10 µM in each case.
